The assay has as its target Cytochrome P450 3A4 (Homo sapiens, UniProt P08684). The assay is described as follows: Binding affinity to recombinant CYP3A4 expressed in Escherichia coli assessed as spectral dissociation constant by spectrophotometric equilibrium binding titration method. Type of assay: ADME. The conditions noted are these: read-out: K.

Peptide text beside a SMILES is read from it.

Sequence of Cytochrome P450 3A4 (P08684 whole entry): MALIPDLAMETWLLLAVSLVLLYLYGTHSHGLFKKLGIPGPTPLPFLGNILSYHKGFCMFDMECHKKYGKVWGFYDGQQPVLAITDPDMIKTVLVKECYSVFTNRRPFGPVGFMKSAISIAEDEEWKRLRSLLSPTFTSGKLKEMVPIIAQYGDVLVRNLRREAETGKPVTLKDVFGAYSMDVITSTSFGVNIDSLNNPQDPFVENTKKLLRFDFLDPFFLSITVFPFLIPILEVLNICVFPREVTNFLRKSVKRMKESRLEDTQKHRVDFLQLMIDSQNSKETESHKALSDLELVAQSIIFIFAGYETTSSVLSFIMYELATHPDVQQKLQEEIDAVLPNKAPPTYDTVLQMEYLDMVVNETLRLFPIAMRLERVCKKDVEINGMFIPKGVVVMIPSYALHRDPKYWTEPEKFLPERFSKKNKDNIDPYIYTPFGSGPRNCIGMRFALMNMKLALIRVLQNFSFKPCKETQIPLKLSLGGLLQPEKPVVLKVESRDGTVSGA

As to `NC(=O)[C@@H]1CCCN1C(=O)[C@H](Cc1ccccc1)NC(=O)[C@@H]1CCCN1C(=O)[C@@H](N)Cc1ccc(O)cc1` [MORPHICEPTIN] (H-YPFP-NH2), the Kd stood at 7.8 mM.

For the origin of these results see ChEMBL document CHEMBL1156433, “Multiple sequential steps involved in the binding of inhibitors to cytochrome P450 3A4” (J Biol Chem, 2007).
